Laboratory results reported in US11814367B2, “Inhibitors of glycogen synthase 1 (GYS1) and methods of use thereof” (Maze Therapeutics, Inc., priority 2021, dated 2023).

Experiments:
[1] = molecular target: hGYS1 enzyme (recombinant hGYS1/GN1 protein) (Homo sapiens (Human), UniProt P13807); assay: GYS1 coupled enzyme assay (PK/LDH); format: biochemical; details: hGYS1/GN1 50 nM, UDP-Glucose 0.8 mM, G6P 1 mM; geometric mean of at least 2 runs
[2] = test system: hGYS1 enzyme / glycogen synthesis in HeLa cells; assay: GYS1 cell based assay (glycogen synthesis, Glucose-glo); set-up: species or system human; details: Homo sapiens, HeLa, 24 h, 24 h incubation, 20 mM glucose, geometric mean of at least 2 runs
Method in brief: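 HeLa cells starved 24 h in medium containing only 1× Glutamax were plated onto compound in medium with 20 mM glucose (1% DMSO final) for 24 h, 37 °C, 5% CO2. Acid lysates were Tris-quenched, glucoamylase-digested (pH 5.3, 1 h, 37 °C) and read by Glucose-glo luminescence. IC50 came from Hill fits, as geometric mean of ≥2 runs.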

[3] = molecular target: hGYS2 enzyme (recombinant hGYS2/GN1 protein) (Homo sapiens (Human), UniProt P54840); assay: GYS2 coupled enzyme assay (PK/LDH); format: biochemical; details: geometric mean of at least 2 assay runs on separate days, read-out: Avg_IC50
Chain of hGYS2 enzyme (recombinant hGYS2/GN1 protein) (P54840 whole entry): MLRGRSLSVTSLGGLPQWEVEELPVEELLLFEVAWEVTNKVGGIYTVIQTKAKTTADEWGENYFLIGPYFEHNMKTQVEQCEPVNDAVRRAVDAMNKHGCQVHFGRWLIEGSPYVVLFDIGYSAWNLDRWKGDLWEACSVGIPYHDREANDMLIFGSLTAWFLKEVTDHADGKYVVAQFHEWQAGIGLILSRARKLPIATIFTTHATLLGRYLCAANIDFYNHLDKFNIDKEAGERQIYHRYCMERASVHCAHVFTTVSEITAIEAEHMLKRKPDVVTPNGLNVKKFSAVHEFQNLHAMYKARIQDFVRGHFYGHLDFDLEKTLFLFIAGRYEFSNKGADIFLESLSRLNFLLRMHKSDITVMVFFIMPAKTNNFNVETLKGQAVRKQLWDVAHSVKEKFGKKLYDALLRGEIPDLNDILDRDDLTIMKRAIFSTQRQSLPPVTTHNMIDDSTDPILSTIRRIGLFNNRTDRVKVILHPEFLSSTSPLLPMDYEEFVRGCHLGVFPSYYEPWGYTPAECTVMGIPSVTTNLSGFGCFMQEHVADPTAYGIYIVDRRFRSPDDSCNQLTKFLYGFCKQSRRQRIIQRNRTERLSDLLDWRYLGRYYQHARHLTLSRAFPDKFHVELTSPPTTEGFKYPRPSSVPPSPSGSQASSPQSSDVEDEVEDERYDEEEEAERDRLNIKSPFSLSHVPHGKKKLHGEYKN
Chain of hGYS2 enzyme (recombinant hGYS2/GN1 protein) (P46976 whole entry partner): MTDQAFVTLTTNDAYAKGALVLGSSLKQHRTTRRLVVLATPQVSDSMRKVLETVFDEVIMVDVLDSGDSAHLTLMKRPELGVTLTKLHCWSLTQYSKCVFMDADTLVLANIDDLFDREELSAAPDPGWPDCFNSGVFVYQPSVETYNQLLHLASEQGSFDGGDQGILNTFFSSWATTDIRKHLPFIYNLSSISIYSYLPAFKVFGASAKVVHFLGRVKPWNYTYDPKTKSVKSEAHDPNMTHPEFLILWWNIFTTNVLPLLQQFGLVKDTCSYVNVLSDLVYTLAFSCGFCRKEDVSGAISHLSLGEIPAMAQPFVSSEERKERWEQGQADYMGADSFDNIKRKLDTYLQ
Method in brief: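 Read-out: NADH loss at 340 nm, read each minute for 10 min, slope normalized to controls, duplicate % inhibition fit to Hill (0–100). Enzyme: 200 nM hGYS2/GN1; substrate 2 mM UDP-glucose plus 0.2% glycogen and 2 mM G6P; pH 7.5 Tris, 2.5% DMSO.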

Chain of hGYS1 enzyme (recombinant hGYS1/GN1 protein) (P13807 whole entry): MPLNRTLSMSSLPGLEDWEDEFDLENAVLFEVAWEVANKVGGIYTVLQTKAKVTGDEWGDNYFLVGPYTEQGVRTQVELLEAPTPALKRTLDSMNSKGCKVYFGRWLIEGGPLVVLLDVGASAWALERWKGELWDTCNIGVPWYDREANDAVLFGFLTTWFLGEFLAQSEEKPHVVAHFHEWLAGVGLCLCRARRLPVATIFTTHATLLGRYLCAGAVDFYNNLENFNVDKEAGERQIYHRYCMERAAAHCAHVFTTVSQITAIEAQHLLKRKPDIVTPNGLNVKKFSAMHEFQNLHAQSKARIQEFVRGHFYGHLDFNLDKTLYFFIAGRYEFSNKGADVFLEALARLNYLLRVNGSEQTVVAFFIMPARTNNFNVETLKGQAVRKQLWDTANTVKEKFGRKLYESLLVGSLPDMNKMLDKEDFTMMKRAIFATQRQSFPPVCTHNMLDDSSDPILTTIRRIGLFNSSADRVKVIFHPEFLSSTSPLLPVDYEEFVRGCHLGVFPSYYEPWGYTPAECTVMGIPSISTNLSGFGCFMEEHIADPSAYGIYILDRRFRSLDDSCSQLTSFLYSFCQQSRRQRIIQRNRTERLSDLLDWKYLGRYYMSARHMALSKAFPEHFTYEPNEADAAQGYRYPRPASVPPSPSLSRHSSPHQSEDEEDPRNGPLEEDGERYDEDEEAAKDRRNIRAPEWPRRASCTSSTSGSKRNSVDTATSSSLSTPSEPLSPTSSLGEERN
Chain of hGYS1 enzyme (recombinant hGYS1/GN1 protein) (P46976 whole entry partner): as the sequence (P46976 whole entry partner) above

Structure (SMILES)	IC50 [1] [µM]	IC50 [2] [µM]	IC50 [3] [µM]
O=C1Nc2ccccc2C1CC(=O)N1C[C@H](F)C[C@H]1C(=O)N[C@@H](c1ccccc1)c1ccc(C2CC2)c(F)c1 (stereo partly drawn) [Compound 467, (2S,4R)-N-[(S)-(4-cyclopropyl-3-fluorophenyl)(phenyl)methyl]-4-fluoro-1-[2-(2-oxo-2,3-dihydro-1H-indol-3-yl)acetyl]pyrrolidine-2-carboxamide]	0.324	4.81	> 100
Cc1nn(CC(=O)N2C[C@H](F)C[C@H]2C(=O)N[C@@H](c2ccccc2)c2ccc(C(C)C)c(F)n2)c(=O)o1 [Compound 411, (2S,4R)-4-fluoro-N-[(S)-[6-fluoro-5-(propan-2-yl)pyridin-2-yl](phenyl)methyl)-1-[2-(5-methyl-2-oxo-2,3-dihydro-1,3,4-oxadiazol-3-yl)acetyl]pyrrolidine-2-carboxamide]	0.01	0.22	> 100
O=C(N[C@@H](c1ccccc1)c1ccc(C2CC2)c(F)c1)[C@@H]1C[C@@H](F)CN1C(=O)Cc1cccn2c(=O)[nH]nc12 [Compound 482, (2S,4R)-N-[(S)-(4-cyclopropyl-3-fluorophenyl)(phenyl)methyl]-4-fluoro-1-(2-{3-oxo-2H,3H-[1,2,4]triazolo[4,3-a]pyridin-8-yl}acetyl) pyrrolidine-2-carboxamide]	0.068	1.41	> 100
Cc1cc(C(NC(=O)[C@@H]2C[C@@H](F)CN2C(=O)Cc2cnn[nH]2)c2ccccc2)ncc1C(C)C (single isomer, unassigned) [Compound 604, (2S,4R)-4-fluoro-N-[(S) or (R)-[4-methyl-5-(propan-2-yl)pyridin-2-yl](phenyl)methyl]-1-[2-(1H-1,2,3-triazol-5-yl)acetyl]pyrrolidine-2-carboxamide]	0.176	1.59	> 100
Cc1nccc(NCC(=O)N2C[C@H](F)C[C@H]2C(=O)N[C@@H](c2ccccc2)c2ccc(C3CC3)c(F)n2)n1 [Compound 308, (2S,4R)-N-[(S)-(5-cyclopropyl-6-fluoropyridin-2-yl)(phenyl)methyl]-4-fluoro-1-{2-[(2-methylpyrimidin-4-yl)amino]acetyl}pyrrolidine-2-carboxamide]	0.011	0.33	> 100
CC(C)c1ccc([C@@H](NC(=O)[C@@H]2C[C@@H](F)CN2C(=O)CNC(=O)N2CCC2)c2ccccc2)nc1F [Compound 399, (2S,4R)-1-{2-[(azetidine-1-carbonyl)amino]acetyl}-4-fluoro-N-[(S)-[6-fluoro-5-(propan-2-yl)pyridin-2-yl](phenyl)methyl] pyrrolidine-2-carboxamide]	0.008	0.15	> 100
Cc1nn[nH]c1CC(=O)N1C[C@H](F)C[C@H]1C(=O)N[C@@H](c1ccccc1)c1ccc(C(C)C)c(F)c1 [Compound 367, (2S,4R)-4-fluoro-N-[(S)-[3-fluoro-4-(propan-2-yl)phenyl](phenyl)methyl]-1-[2-(4-methyl-1H-1,2,3-triazol-5-yl)acetyl]pyrrolidine-2-carboxamide]	0.016	0.47	> 100
CC(C)c1ccc([C@@H](NC(=O)[C@@H]2C[C@@H](F)CN2C(=O)Cc2cnn[nH]2)c2cccc(-c3ccn[nH]3)c2)nc1F [Compound 686, (2S,4R)-1-(2-(1H-1,2,3-triazol-5-yl)acetyl)-N—((S)-(3-(1H-pyrazol-5-yl)phenyl)(6-fluoro-5-isopropylpyridin-2-yl)methyl)-4-fluoropyrrolidine-2-carboxamide]	0.013	0.64	> 100
CN(C)c1cnnn1CC(=O)N1C[C@H](F)C[C@H]1C(=O)N[C@@H](c1ccccc1)c1ccc(C2CC2)c(F)n1 [Compound 298, (2S,4R)-N-[(S)-(5-cyclopropyl-6-fluoropyridin-2-yl)(phenyl)methyl]-1-{2-[5-(dimethylamino)-1H-1,2,3-triazol-1-yl]acetyl}-4-fluoropyrrolidine-2-carboxamide]	0.012	0.26	> 100
CC(C)c1ccc([C@@H](NC(=O)[C@@H]2C[C@@H](F)CN2C(=O)Cn2ncc(N3CC(F)(F)C3)n2)c2ccccc2)nc1F [Compound 413, (2S,4R)-1-{2-[4-(3,3-difluoroazetidin-1-yl)-2H-1,2,3-triazol-2-yl]acetyl}-4-fluoro-N-[(S)-[6-fluoro-5-(propan-2-yl)pyridin-2-yl](phenyl)methyl] pyrrolidine-2-carboxamide]	0.006	0.16	> 100
O=C(N[C@@H](c1ccccc1)c1ccc(C2CC(F)(F)C2)c(F)n1)[C@@H]1C[C@@H](F)CN1C(=O)Cn1cnc2ccccc21 [Compound 504, (2S,4R)-1-[2-(1H-1,3-benzodiazol-1-yl)acetyl]-N-[(S)-[5-(3,3-difluorocyclobutyl)-6-fluoropyridin-2-yl](phenyl)methyl]-4-fluoropyrrolidine-2-carboxamide]	0.003	0.06	> 100
O=C(N[C@@H](c1ccccc1)c1ccc(C2CC(F)(F)C2)c(F)c1)[C@@H]1C[C@@H](F)CN1C(=O)Cc1[nH]nnc1C(F)(F)F [Compound 553, (2S,4R)-N-[(S)-[4-(3,3-difluorocyclobutyl)-3-fluorophenyl](phenyl)methyl]-4-fluoro-1-{2-[4-(trifluoromethyl)-1H-1,2,3-triazol-5-yl]acetyl}pyrrolidine-2-carboxamide]	0.008	0.4	> 100
Cc1cnc(CC(=O)N2C[C@H](F)C[C@H]2C(=O)N[C@@H](c2ccccc2)c2ccc(C3CC3)c(F)n2)o1 [Compound 313, (2S,4R)-N-[(S)-(5-cyclopropyl-6-fluoropyridin-2-yl)(phenyl)methyl]-4-fluoro-1-[2-(5-methyl-1,3-oxazol-2-yl)acetyl]pyrrolidine-2-carboxamide]	0.039	0.86	> 100
Cc1nc(C(NC(=O)[C@@H]2C[C@@H](F)CN2C(=O)Cc2cnn[nH]2)c2ccccc2)ccc1C(C)C (single isomer, unassigned) [Compound 607, (2S,4R)-4-fluoro-N-[(S) or (R)-[6-methyl-5-(propan-2-yl)pyridin-2-yl](phenyl)methyl]-1-[2-(1H-1,2,3-triazol-5-yl)acetyl]pyrrolidine-2-carboxamide]	0.333	3.29	> 100
O=C(N[C@@H](c1ccccc1)c1ccc(C2CC(F)(F)C2)c(F)n1)[C@@H]1C[C@@H](F)CN1C(=O)Cn1nnnc1C(F)F [Compound 513, (2S,4R)-N-[(S)-[5-(3,3-difluorocyclobutyl)-6-fluoropyridin-2-yl](phenyl)methyl]-1-{2-[5-(difluoromethyl)-1H-1,2,3,4-tetrazol-1-yl]acetyl}-4-fluoropyrrolidine-2-carboxamide]	0.014	0.22	> 100
CCn1cc(CC(=O)N2C[C@H](F)C[C@H]2C(=O)N[C@@H](c2ccccc2)c2ccc(C(C)C)c(F)n2)ccc1=O [Compound 792, (2S,4R)-1-[2-(1-ethyl-6-oxo-1,6-dihydropyridin-3-yl)acetyl]-4-fluoro-N-[(S)-[6-fluoro-5-(propan-2-yl)pyridin-2-yl](phenyl)methyl] pyrrolidine-2-carboxamide]	0.006	0.21	> 100
CC(C)c1ccc([C@@H](NC(=O)[C@@H]2CC[C@H](C)N2C(=O)Cc2cnn[nH]2)c2ccccc2)nc1F [Compound 416, (2S,5S)-N-[(S)-[6-fluoro-5-(propan-2-yl)pyridin-2-yl](phenyl)methyl]-5-methyl-1-[2-(1H-1,2,3-triazol-5-yl)acetyl]pyrrolidine-2-carboxamide]	0.025	0.47	> 100
Cc1ccc2c(CC(=O)N3C[C@H](F)C[C@H]3C(=O)N[C@@H](c3ccccc3)c3ccc(C4CC4)c(F)c3)cccc2n1 [Compound 477, (2S,4R)-N-[(S)-(4-cyclopropyl-3-fluorophenyl)(phenyl)methyl]-4-fluoro-1-[2-(2-methylquinolin-5-yl)acetyl]pyrrolidine-2-carboxamide]	0.02	0.63	> 100
CC(C)c1ccc([C@@H](NC(=O)[C@@H]2C[C@@H](F)CN2C(=O)Cn2nnc(C(F)F)n2)c2ccccc2)nc1 [Compound 256, (2S,4R)-1-{2-[5-(difluoromethyl)-2H-1,2,3,4-tetrazol-2-yl]acetyl}-4-fluoro-N-[(S)-phenyl[5-(propan-2-yl)pyridin-2-yl]methyl]pyrrolidine-2-carboxamide]	0.039	0.99	> 100
O=C(N[C@@H](c1ccccc1)c1ccc(C2CC2)c(F)c1)[C@@H]1C[C@@H](F)CN1C(=O)COC(=O)N1CCN(CC(F)(F)F)CC1 [Compound 446, 2-[(2S,4R)-2-{[(S)-(4-cyclopropyl-3-fluorophenyl)(phenyl)methyl]carbamoyl}-4-fluoropyrrolidin-1-yl]-2-oxoethyl 4-(2,2,2-trifluoroethyl)piperazine-1-carboxylate]	0.098	2.19	> 100
